Assays:
[1] = Formation of 1,5-cz-[M(Lig)] from Lig and M^III ions (metal dependent click-zip) (Charts 4, 5); format: physicochemical; settings: for conversion to 1,5-cz-[M(Lig)], Bi^III: 4% DMSO in MOPS/NaOH buffer pH 7.0, TD728 in 50% i-PrOH; for conversion to 1,5-cz-[M(Lig)], Ir^III / conversion to 1,5-cz-[M(Lig)], Ru^III: 50% i-PrOH in MOPS/NaOH buffer pH 7.0; for conversion to 1,5-cz-[M(Lig)], Sc^III / conversion to 1,5-cz-[M(Lig)], Y^III: MOPS/NaOH buffer pH 7.0, TD728, TD827 in 50% i-PrOH; for conversion to 1,5-cz-[M(Lig)], Y^III: TD714 sum of two diastereoisomers
[2] = Formation of 1,5-cz-[M(Lig)] from Lig and M^II ions (metal dependent click-zip) (Charts 6, 7); format: physicochemical; settings: for conversion to 1,5-cz-[M(Lig)], Pt^II: 50% i-PrOH in MOPS/NaOH buffer pH 7.0; for conversion to 1,5-cz-[M(Lig)], Ca^II / conversion to 1,5-cz-[M(Lig)], Cd^II / conversion to 1,5-cz-[M(Lig)], Mn^II / conversion to 1,5-cz-[M(Lig)], Pb^II / conversion to 1,5-cz-[M(Lig)], Pd^II: MOPS/NaOH buffer pH 7.0, TD728 in 50% i-PrOH
[3] = Formation of 1,5-cz-[Ln(Lig)] from Lig and Ln^III ions (metal dependent click-zip), MOPS/NaOH buffer pH 7.0, analytical HPLC (Charts 1, 2); settings: 50% i-PrOH in aq. MOPS/NaOH Buffer pH 7.0

CC(C)[Si](C#Cc1cccc(CN2CCN(CC(=O)O)CCN(Cc3cccc(CN=[N+]=[N-])n3)CCN(CC(=O)O)CC2)n1)(C(C)C)C(C)C [TD728]
conversion to 1,5-cz-[M(Lig)], Bi^III ([1]; 1 week at 80° C.): 29%
conversion to 1,5-cz-[M(Lig)], Ir^III ([1]; 1 week at 80° C.): 0%
conversion to 1,5-cz-[M(Lig)], Ru^III ([1]; 1 week at 80° C.): 0%
conversion to 1,5-cz-[M(Lig)], Sc^III ([1]; 1 week at 80° C.): 2%
conversion to 1,5-cz-[M(Lig)], Y^III ([1]; 1 week at 80° C.): 50%
conversion to 1,5-cz-[M(Lig)], Bi^III ([1]; 1 hour at 80° C.): 5%
conversion to 1,5-cz-[M(Lig)], Ir^III ([1]; 1 hour at 80° C.): 0%
conversion to 1,5-cz-[M(Lig)], Ru^III ([1]; 1 hour at 80° C.): 0%
conversion to 1,5-cz-[M(Lig)], Sc^III ([1]; 1 hour at 80° C.): 0%
conversion to 1,5-cz-[M(Lig)], Y^III ([1]; 1 hour at 80° C.): 1%
conversion to 1,5-cz-[M(Lig)], Pt^II ([2]; 1 week at 80° C.): 0%
conversion to 1,5-cz-[M(Lig)], Ca^II ([2]; 1 week at 80° C.): 37%
conversion to 1,5-cz-[M(Lig)], Cd^II ([2]; 1 week at 80° C.): 36%
conversion to 1,5-cz-[M(Lig)], Mn^II ([2]; 1 week at 80° C.): 1%
conversion to 1,5-cz-[M(Lig)], Pb^II ([2]; 1 week at 80° C.): 14%
conversion to 1,5-cz-[M(Lig)], Pd^II ([2]; 1 week at 80° C.): 1%
conversion to 1,5-cz-[M(Lig)], Pt^II ([2]; 1 hour at 80° C.): 0%
conversion to 1,5-cz-[M(Lig)], Ca^II ([2]; 1 hour at 80° C.): 0%
conversion to 1,5-cz-[M(Lig)], Mn^II ([2]; 1 hour at 80° C.): 0%
conversion to 1,5-cz-[M(Lig)], Pb^II ([2]; 1 hour at 80° C.): 0%
conversion to 1,5-cz-[M(Lig)], Pd^II ([2]; 1 hour at 80° C.): 1%
conversion to 1,5-cz-[M(Lig)], Cd^II ([2]; 1 hour at 80° C., TD714 sum of two diastereoisomers): 1%
conversion to 1,5-cz-[Ln(Lig)], Ce^III ([3]; after 1 week at 80° C.): 5%
conversion to 1,5-cz-[Ln(Lig)], Ce^III ([3]; after 1 hour at 80° C.): 0%
conversion to 1,5-cz-[Ln(Lig)], Dy^III ([3]; after 1 week at 80° C.): 54%
conversion to 1,5-cz-[Ln(Lig)], Dy^III ([3]; after 1 hour at 80° C.): 1%
conversion to 1,5-cz-[Ln(Lig)], Er^III ([3]; after 1 week at 80° C.): 72%
conversion to 1,5-cz-[Ln(Lig)], Er^III ([3]; after 1 hour at 80° C.): 1%
conversion to 1,5-cz-[Ln(Lig)], Eu^III ([3]; after 1 week at 80° C.): 35%
conversion to 1,5-cz-[Ln(Lig)], Eu^III ([3]; after 1 hour at 80° C.): 0%
conversion to 1,5-cz-[Ln(Lig)], Gd^III ([3]; after 1 week at 80° C.): 32%
conversion to 1,5-cz-[Ln(Lig)], Gd^III ([3]; after 1 hour at 80° C.): 0%
conversion to 1,5-cz-[Ln(Lig)], Ho^III ([3]; after 1 week at 80° C.): 60%
conversion to 1,5-cz-[Ln(Lig)], Ho^III ([3]; after 1 hour at 80° C.): 1%
conversion to 1,5-cz-[Ln(Lig)], La^III ([3]; after 1 week at 80° C.): 13%
conversion to 1,5-cz-[Ln(Lig)], La^III ([3]; after 1 hour at 80° C.): 0%
conversion to 1,5-cz-[Ln(Lig)], Lu^III ([3]; after 1 week at 80° C.): 88%
conversion to 1,5-cz-[Ln(Lig)], Lu^III ([3]; after 1 hour at 80° C.): 2%
conversion to 1,5-cz-[Ln(Lig)], Nd^III ([3]; after 1 week at 80° C.): 24%
conversion to 1,5-cz-[Ln(Lig)], Nd^III ([3]; after 1 hour at 80° C.): 0%
conversion to 1,5-cz-[Ln(Lig)], Pr^III ([3]; after 1 week at 80° C.): 23%
conversion to 1,5-cz-[Ln(Lig)], Pr^III ([3]; after 1 hour at 80° C.): 0%
conversion to 1,5-cz-[Ln(Lig)], Sm^III ([3]; after 1 week at 80° C.): 34%
conversion to 1,5-cz-[Ln(Lig)], Sm^III ([3]; after 1 hour at 80° C.): 0%
conversion to 1,5-cz-[Ln(Lig)], Tb^III ([3]; after 1 week at 80° C.): 49%
conversion to 1,5-cz-[Ln(Lig)], Tb^III ([3]; after 1 hour at 80° C.): 0%
conversion to 1,5-cz-[Ln(Lig)], Tm^III ([3]; after 1 week at 80° C.): 84%
conversion to 1,5-cz-[Ln(Lig)], Tm^III ([3]; after 1 hour at 80° C.): 1%
conversion to 1,5-cz-[Ln(Lig)], Yb^III ([3]; after 1 week at 80° C.): 88%
conversion to 1,5-cz-[Ln(Lig)], Yb^III ([3]; after 1 hour at 80° C.): 2%

Source: patent US20250147039A1, “Compounds for complexation of rare earth elements and/or s-, p-, d- block metals, their coordination compounds, peptide conjugates, method of their preparation and use thereof” (USTAV ORGANICKE CHEMIE A BIOCHEMIE AV CR V.V.I., priority 2021, published 2025)
